This data set is described as follows: Single dose pharmacokinetics (PK) study in male Wister-Han rats. In kind it is in vivo, rat. As to the method: Pharmacokinetic properties of selected compounds were assessed by single dose PK studies in Male Wister-Han Rats (vendor: Beijing Vital River Laboratory Animal Technology Co., Ltd). Briefly, two groups of animals were administered a single dose of respective compound intravenously (IV, bolus) at 2 mg/kg or orally (PO, by gavage) at 10 mg/kg. Blood samples (approximately 150 μL) were collected via Jugular vein at 5 min (only for IV), 15 min, 30 min, 1 h, 2 h, 4 h, 7 h and 24 h post-dose. Blood samples were placed into tubes containing EDTA-K2 anticoagulant and centrifuged at 3000 rpm for 15 min at 4° C. to separate plasma from the samples. After centrifugation, the resulting plasma was transferred to clean tubes for bioanalysis with LC/MS/MS. The pharmacokinetic parameters were calculated using non-compartmental analysis. The volume of distribution (Vss), half-life (T1/2) and clearance (CL) were obtained based on the plasma concentration-time curve after IV dose. The peak concentration (Cmax) was recorded directly from experimental observations after PO dose. The area under the plasma concentration-time curve (AUC0-last) was calculated using the linear trapezoidal rule up to the last detectable concentration. The bioavailability (F) was calculated based on the dose normalized AUC0-last after IV and PO dose.
The Vss of a drug represents the degree to which a drug is distributed in body tissue rather than the plasma. Vss is directly proportional with the amount of drug distributed into tissue. A higher Vss indicates a greater amount of tissue distribution.

Like-named read-outs stand apart in the source and are kept apart here.

Compound `CO[C@@H]1CN(c2ccc3c(c2)[C@@H](C)CN(c2ccnc4c2cnn4C)C3)C[C@H]1N` [Example 20, (3R,4R)-4-methoxy-1-[(4R)-4-methyl-2-(1-methylpyrazolo[3,4-b]pyridin-4-yl)-3,4-dihydro-1H-isoquinolin-6-yl]pyrrolidin-3-amine] registered a F (dose normalized AUC0-last PO 10 mg/kg vs IV 2 mg/kg) of 60%. The AUC(0-t) (rat, IV 2 mg/kg, plasma, read-out: IV AUC0-last) turned out to be 5480 ng·h/mL. Besides, under “rat, PO 10 mg/kg, plasma”, the peak level (Cmax) was 1140 ng/mL. Besides, the AUC(0-t) (rat, PO 10 mg/kg, plasma, read-out: PO AUC0-last) was determined as 16500 ng·h/mL. Also, where the note is “rat, plasma, IV 2 mg/kg”, the clearance came to 6 mL/min/kg and the half-life was 3.3 h. Further, the Vd (rat, plasma, IV 2 mg/kg, read-out: Vss) came to 1.5 L/kg.

For the origin of these results see patent US20240317735A1, “HYDROISOQUINOLINE OR HYDRONAPHTHYRIDINE COMPOUNDS FOR THE TREATMENT OF AUTOIMMUNE DISEASE” (Hoffmann-La Roche Inc., priority 2020, published 2024).
